According to paper PMC4448979 (Pharmacology Research & Perspectives, 2015):
Blank lines part the entries; values can stand above or below the molecule they belong to.

How the values were obtained:
Type in all cases: cell-based
[1] = target: T1, human P2X7 receptor (HEK-hP2X7) (Homo sapiens, UniProt Q99572); assay: cytosensor, cell impedance
T1 sequence (Q99572 1-595): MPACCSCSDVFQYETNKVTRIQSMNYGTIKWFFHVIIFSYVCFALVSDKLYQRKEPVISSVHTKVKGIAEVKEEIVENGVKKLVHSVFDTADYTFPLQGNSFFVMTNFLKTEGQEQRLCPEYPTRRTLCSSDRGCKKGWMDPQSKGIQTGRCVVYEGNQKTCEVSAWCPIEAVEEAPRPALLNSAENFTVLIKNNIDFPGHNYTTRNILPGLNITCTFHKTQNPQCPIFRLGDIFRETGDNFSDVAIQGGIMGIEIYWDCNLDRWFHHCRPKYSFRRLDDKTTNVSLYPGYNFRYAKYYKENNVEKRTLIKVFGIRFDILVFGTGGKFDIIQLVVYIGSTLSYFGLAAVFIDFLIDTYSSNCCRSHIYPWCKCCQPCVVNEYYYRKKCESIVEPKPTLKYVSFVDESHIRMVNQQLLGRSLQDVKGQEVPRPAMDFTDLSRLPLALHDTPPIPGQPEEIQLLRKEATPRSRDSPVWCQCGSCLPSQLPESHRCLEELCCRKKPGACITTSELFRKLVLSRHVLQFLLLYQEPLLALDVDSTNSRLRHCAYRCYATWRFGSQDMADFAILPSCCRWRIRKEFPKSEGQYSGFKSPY

[2] = target: T1, human P2X7 receptor (HEK-hP2X7); assay: YoPro1 dye uptake, fluorescence plate reader; settings: agonist; HEK-hP2X7 cells
[3] = target: T2, P2X7 receptor of mouse microglia BV2 cells (Mus musculus, UniProt Q9Z1M0); assay: whole-cell patch clamp; settings: antagonist; 100 μmol/L BzATP; -70 mV, room temperature, pH 7.4
T2 sequence (Q9Z1M0 1-595): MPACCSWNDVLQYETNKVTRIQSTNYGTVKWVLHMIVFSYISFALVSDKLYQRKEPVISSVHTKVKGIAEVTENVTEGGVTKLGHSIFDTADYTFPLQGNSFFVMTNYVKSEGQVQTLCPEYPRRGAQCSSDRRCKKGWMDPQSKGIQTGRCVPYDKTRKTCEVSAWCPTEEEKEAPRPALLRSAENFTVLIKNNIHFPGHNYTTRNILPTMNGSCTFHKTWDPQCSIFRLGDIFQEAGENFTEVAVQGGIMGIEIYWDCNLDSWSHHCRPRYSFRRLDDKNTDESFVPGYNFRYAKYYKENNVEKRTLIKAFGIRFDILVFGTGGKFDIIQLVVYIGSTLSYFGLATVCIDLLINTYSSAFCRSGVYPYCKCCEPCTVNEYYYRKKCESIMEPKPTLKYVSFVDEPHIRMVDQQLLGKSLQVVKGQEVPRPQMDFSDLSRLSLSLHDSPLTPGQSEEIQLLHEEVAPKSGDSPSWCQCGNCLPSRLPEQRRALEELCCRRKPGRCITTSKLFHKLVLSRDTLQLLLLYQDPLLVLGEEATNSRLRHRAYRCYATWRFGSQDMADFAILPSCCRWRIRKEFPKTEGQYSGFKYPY

[4] = target: T1, human P2X7 receptor (HEK-hP2X7); assay: YoPro1 dye uptake, fluorescence plate reader
human P2X4 (1321N1) = target: T3, human P2X4 (1321N1) (Homo sapiens, UniProt Q99571); assay: Fluo-4 calcium flux, fluorescence plate reader; settings: 1321-N1, read-out: decrease in remaining activity at 10 μmol/L
T3 sequence (Q99571 1-388): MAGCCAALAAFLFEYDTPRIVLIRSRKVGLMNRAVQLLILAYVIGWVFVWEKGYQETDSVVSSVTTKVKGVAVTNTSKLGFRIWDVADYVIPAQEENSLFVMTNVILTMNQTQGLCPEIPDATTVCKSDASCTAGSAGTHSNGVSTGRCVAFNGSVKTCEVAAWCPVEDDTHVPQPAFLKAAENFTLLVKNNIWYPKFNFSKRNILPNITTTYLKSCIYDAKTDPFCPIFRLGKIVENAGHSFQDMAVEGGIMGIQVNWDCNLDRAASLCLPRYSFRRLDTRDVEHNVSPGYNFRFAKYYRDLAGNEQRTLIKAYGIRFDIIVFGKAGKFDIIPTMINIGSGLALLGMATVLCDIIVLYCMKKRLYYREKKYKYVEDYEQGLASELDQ

EC50 [1]: 9600 ± 1800 nM
SMILES: Nc1ncnc2c1ncn2[C@@H]1O[C@H](COP(=O)(O)OP(=O)(O)OP(=O)(O)O)[C@@H](OC(=O)c2ccc(C(=O)c3ccccc3)cc2)[C@H]1O [BzATP, 2′, 3′–O–(4-benzoylbenzoyl)–ATP]

SMILES: Nc1ncnc2c1ncn2[C@@H]1O[C@H](COP(=O)(O)OP(=O)(O)OP(=O)(O)O)[C@@H](O)[C@H]1O [ATP]
YoPro1 dye uptake, fluorescence plate reader [2]: confirmed using the YoPro1 uptake assay upon stimulation of the target cells with ATP

IC50 [3]: 1000 to 3000 nM
IC50 [4]: 11.2 nM
remaining activity at 10 µM (human P2X4 (1321N1)): 27%
SMILES: O=C(NCC12CC3CC(CC(C3)C1)C2)c1cc(CCCNCCCO)ccc1Cl [AZD9056]
